We go through one compound from US20080039321A1, “Plant Growth Regulation” (priority 2004, published 2008).

SMILES strings stand for the structures.

The subject of the assay is wheat (Triticum aestivum, variety "TRISO"). Nature of the assay: Root growth assay, seed treatment, wheat. The assay is classed as in vivo. The note with it: Root Growth of 100 is set as the standard, 16 (±2) days post treatment. From the text: Plant roots are a highly proliferative tissue that allows an easy accessible, cheap and short term screening method for plant growth regulators. The results obtained can easily be transferred to the overall effects on a plant of plant growth regulators identified by such a system. By using this root assay one is enabled to determine the effect of a seed treatment to root growth and/or germination and/or changes in habitat of germinated plants in order to identify the possible use as a yield enhancer. Two seeds of wheat (Triticum aestivum, variety “TRISO”) or 1 seed of maize (Zea mays, variety “LORENZO”) per hole in a plastic tray which contains an architecture of 8×13 holes were placed on compost soil covered with sand. These seeds were treated with 100 μl/hole, which creates an application volume of approx. 1200 l/ha, of a compound solution at active ingredient rates equivalent to 100, 10 and 1 g a.i./ha of each compound using an robotic application system (Lizzy Spray Robotics). Six replicates in a row of each compound and concentration were done. The outer rim of the above defined plastic tray was untreated to avoid false negative effects and the middle row (No. 7) was used as untreated control. The treated seeds were allowed to dry for approx. 4 hours and subsequently covered with sand and watered. The trays were stored in climate chambers with 14 hours lighting at a temperature of 24° C. (±2) at daytime and 16° C. (±2) at night and relative humidity (rH) of 60% and daily watered. Assessments were done 16 (±2) days post treatment by counting the germinated plants and assessing the phytotoxicity symptoms and percentage. In addition, the roots were washed out and the shoots were cut directly above the seed and the wet roots were placed on dry paper towels for approximately 30 minutes and weighted afterwards. This procedure provides a similar grade of moisture to the roots so that a comparison of the weights is possible. […]

On to `Nc1nc(OCC23CC4CC(CC(C4)C2)C3)c2nc[nH]c2n1` [Compound 1.1, O6-Adamantylmethyl-9H-purin-2-ylamine], for which the “Root Growth” value reads like this: (1 g a.i./ha) 84; (10 g a.i./ha) 76; (100 g a.i./ha) 141.
